Consider three molecules from US10947213B1 (Merck Patent GmbH, priority 2015, dated 2021).

This test concerns the target T1, TLR7/NFKb HEK cells (Homo sapiens, UniProt Q9NYK1).
T1 construct: expressed in transfected cells; host or cells: HEK cells (TLR7/NFKb reporter line)
T1 sequence (Q9NYK1 27-1049): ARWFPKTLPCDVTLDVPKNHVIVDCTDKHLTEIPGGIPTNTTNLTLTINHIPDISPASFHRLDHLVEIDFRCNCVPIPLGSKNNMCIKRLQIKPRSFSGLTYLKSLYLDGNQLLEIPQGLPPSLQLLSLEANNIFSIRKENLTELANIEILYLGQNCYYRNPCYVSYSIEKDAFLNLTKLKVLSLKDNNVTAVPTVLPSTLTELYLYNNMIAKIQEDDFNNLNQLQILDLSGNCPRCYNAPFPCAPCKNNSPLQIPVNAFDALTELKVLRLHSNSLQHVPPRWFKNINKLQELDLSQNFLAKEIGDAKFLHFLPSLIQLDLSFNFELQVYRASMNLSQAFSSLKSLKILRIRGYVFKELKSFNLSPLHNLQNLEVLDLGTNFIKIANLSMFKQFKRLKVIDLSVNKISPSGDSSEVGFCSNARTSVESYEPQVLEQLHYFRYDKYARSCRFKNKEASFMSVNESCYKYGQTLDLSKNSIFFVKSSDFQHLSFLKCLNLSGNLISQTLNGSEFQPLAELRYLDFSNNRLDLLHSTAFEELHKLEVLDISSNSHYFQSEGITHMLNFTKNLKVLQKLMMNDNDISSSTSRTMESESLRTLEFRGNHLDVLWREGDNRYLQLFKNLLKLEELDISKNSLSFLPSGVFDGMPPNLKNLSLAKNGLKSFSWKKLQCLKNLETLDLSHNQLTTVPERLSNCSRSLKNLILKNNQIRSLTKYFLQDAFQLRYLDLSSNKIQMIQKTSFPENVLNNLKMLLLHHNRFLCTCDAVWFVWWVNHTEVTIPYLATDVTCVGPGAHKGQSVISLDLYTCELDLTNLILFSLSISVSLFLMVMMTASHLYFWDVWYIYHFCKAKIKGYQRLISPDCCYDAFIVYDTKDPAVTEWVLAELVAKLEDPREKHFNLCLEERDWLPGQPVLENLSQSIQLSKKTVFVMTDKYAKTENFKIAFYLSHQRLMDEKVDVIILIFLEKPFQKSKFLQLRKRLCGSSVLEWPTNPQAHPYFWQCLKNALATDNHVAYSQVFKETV
The experiment in a line: HEK Cell Assay (TLR7/NFKb reporter, Steady-Glo luciferase readout). Type of test: cell-based. The settings on record: 30 min compound preincubation, then R*48 agonist for 5 hours, read-out: Potency. The essentials:
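Steady-Glo luminescence after 5 h stimulation with R*48 agonist, following 30 min compound preincubation. Assay run in HEK cells carrying a TLR7/NFKb luciferase reporter, plated at 5000 cells/well and grown 24 h at 37° C (10% CO2) before treatment.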

Molecules are shown by their SMILES.

Regarding `CC(C(=O)N[C@@H]1C[C@H](C)CN(c2ccc(C#N)c3nccnc23)C1)N1CCC(O)CC1` (stereo partly drawn) [Compound 275, N-[(3R,5S)-1-(8-cyanoquinoxalin-5-yl)-5-methylpiperidin-3-yl]-2-(4-hydroxypiperidin-1-yl)propanamide], the IC50 is less than 1000 nM. As to `C[C@H]1C[C@@H](NC2CCN(C)C2=O)CN(c2ccc(C#N)c3nccnc23)C1` (single isomer, unassigned) [Compound 125], the IC50 was less than 1000 nM.

`C[C@H]1C[C@@H](NC(=O)NCCN(C)C)CN(c2ccc(C(F)(F)F)c3ncccc23)C1` [Compound 477, 1-(2-Dimethylamino-ethyl)-3-[(3R,5S)-5-methyl-1-(8-trifluoromethyl-quinolin-5-yl)-piperidin-3-yl]-urea]: the IC50 is less than 1000 nM.
